Results published in patent US20190300882A1, “METHODS OF TREATING NEUROBLASTOMA AND REAGENTS THEREFOR” (GARVAN INSTITUTE OF MEDICAL RESEARCH, priority 2016, published 2019).

Legend:
IMR-90 cells = test: Cell toxicity screen of synthetic lethal miRNAs in non-cancer cells; conditions: for cell viability in non-cancer cells, DXR (% of control): IMR-90, miRNA + low dose IC30 doxorubicin; for cell viability in non-cancer cells, VCR (% of control): IMR-90, miRNA + low dose IC30 vincristine; for cell viability in non-cancer cells, Media (% of control): IMR-90, miRNA alone (media); for activity in IMR90 cells: even when administered in combination with a chemotherapeutic agent
Description: The cell toxicity screens were performed in IMR-90 cells (normal human fibroblast cells, ATCC).

KELLY cells [1] = test: Primary miRNA mimic screen in combination with low dose IC30 of vincristine or doxorubicin, cell viability; format: cell-based; conditions: for Primary screen Viability (% of control) Kelly DXR: miRNA mimic 25 nM + low dose IC30 doxorubicin; for Primary screen Viability (% of control) Kelly VCR: miRNA mimic 25 nM + low dose IC30 vincristine; for Primary screen Viability (% of control) Kelly Vehicle: miRNA mimic 25 nM + vehicle
Description: To systematically identify miRNAs that affect viability and survival of neuroblstoma cells in combination with chemotherapy, a further functional miRNA screen was performed using the 1200 miRNAs from the miRIDIAN miRNA mimic Library (version 16.0; Dharmacon) in combination with low dose IC30 of vincristine or doxorubicin in the two neuroblastoma cancer cell lines. In doing so, the inventors identified miRNAs which result in a lethal phenotype to neuroblastoma cells when administered in combination with low dose IC30 chemotherapy (hereinafter referred to as ‘synthetic lethal’ miRNAs). […] After 24 hours, media was changed using a BioTek 406. […] Luminescence measurements were taken on the Synergy H4 high-throughput multimode microplate reader as described in Example 1. All screens were performed in duplicates.

[2] = test system: SK-N-DZ MYCN-amplified neuroblastoma cell line; test: Secondary validation screen of synthetic lethal miRNAs with low dose IC30 chemotherapy, additional cell line; format: cell-based; conditions: for Additional cell line Viability (% of control) SKNDZ DXR: miRNA mimic + low dose IC30 doxorubicin; for Additional cell line Viability (% of control) SKNDZ VCR: miRNA mimic + low dose IC30 vincristine; for Additional cell line Viability (% of control) SKNDZ Vehicle: miRNA mimic + vehicle
Description: (§1) KELLY cells were grown in 10% FCS/RPMI as described in Example 1 and reverse transfected in 384-well plate format with 25 nM of a miRNA from the Dharmacon microRNA mimic Library (version 16.0) using liquid-handling robot Calliper Sciclone ALH3000 according to the conditions described in Table 3. After 24 hours, media was changed using a BioTek 406. Media was again changed after 48 hours and 96 hours using a BioTek 406, and at each of those time points low dose IC30 of vincristine or doxorubicin was added to the culture. 144 hours post-transfection, cell viability was determined using CellTiter-Glo luminescent assay (Promega) at 1:2 dilution. Luminescence measurements were taken on the Synergy H4 high-throughput multimode microplate reader as described in Example 1. All screens were performed in duplicates. The experimental design and timeline for this screen are illustrated in FIGS. 5 and 6, respectively.
(§2) The secondary validation screens were performed in accordance with the genome-wide screens described in Example 1 and Example 2, respectively, with the exception that an additional MYCN-amplified neuroblastoma cell line (SK-N-DZ) was added to each screen.
(§3) Furthermore, five additional non-active miRNAs discovered to have no measureable effect across all treatment groups of the genome-wide screen (‘non-lethal’ miRNAs) were included as negative controls.

KELLY cells [3] = test: Secondary validation screen of synthetic lethal miRNAs with low dose IC30 chemotherapy, cell viability; format: cell-based; conditions: for synthetic lethality with chemotherapy: in both Kelly and SKNDZ MYCN-amplified cells, secondary screen; for Secondary screen Viability (% of control) Kelly DXR: miRNA mimic + low dose IC30 doxorubicin; for Secondary screen Viability (% of control) Kelly VCR: miRNA mimic + low dose IC30 vincristine; for Secondary screen Viability (% of control) Kelly Vehicle: miRNA mimic + vehicle
Description: as §1, §2, §3

Row | Substance | cell viability in non-cancer cells, DXR (% of control) (IMR-90 cells) | cell viability in non-cancer cells, VCR (% of control) (IMR-90 cells) | cell viability in non-cancer cells, Media (% of control) (IMR-90 cells) | activity in IMR90 cells (IMR-90 cells) | Primary screen Viability (% of control) Kelly DXR (KELLY cells [1]) | Primary screen Viability (% of control) Kelly VCR (KELLY cells [1]) | Primary screen Viability (% of control) Kelly Vehicle (KELLY cells [1]) | Additional cell line Viability (% of control) SKNDZ DXR [2] | Additional cell line Viability (% of control) SKNDZ VCR [2] | Additional cell line Viability (% of control) SKNDZ Vehicle [2] | synthetic lethality with chemotherapy (KELLY cells [3]) | Secondary screen Viability (% of control) Kelly DXR (KELLY cells [3]) | Secondary screen Viability (% of control) Kelly VCR (KELLY cells [3]) | Secondary screen Viability (% of control) Kelly Vehicle (KELLY cells [3])
1 | hsa-miR-380-3p (UAUGUAAUAUGGUCCACAUCUU; chemistry not given here; listed as Homo sapiens) | 96 % of control | 117 % of control | 99 % of control | minimal activity | 20 % of control | 63 % of control | 94 % of control | 30 % of control | 80 % of control | 100 % of control | substantial synthetic lethality | 38 % of control | 76 % of control | 90 % of control
2 | hsa-miR-3151 (GGUGGGGCAAUGGGAUCAGGU; chemistry not given here; listed as Homo sapiens) |  |  |  |  | 40 % of control | 52 % of control | 102 % of control | 71 % of control | 72 % of control | 87 % of control |  | 65 % of control | 47 % of control | 102 % of control
3 | hsa-miR-3646 (AAAAUGAAAUGAGCCCAGCCCA; chemistry not given here; listed as Homo sapiens) |  |  |  |  | 34 % of control | 55 % of control | 74 % of control | 52 % of control | 110 % of control | 101 % of control |  | 45 % of control | 72 % of control | 70 % of control
4 | hsa-miR-3181 (AUCGGGCCCUCGGCGCCGG; chemistry not given here; listed as Homo sapiens) |  |  |  |  | 34 % of control | 57 % of control | 94 % of control | 38 % of control | 83 % of control | 91 % of control |  | 61 % of control | 96 % of control | 108 % of control
5 | hsa-miR-485-3p (guide GUCAUACACGGCUCUCCUCUCU; chemistry not given here; listed as Homo sapiens) | 76 % of control | 80 % of control | 79 % of control | minimal activity | 23 % of control | 52 % of control | 72 % of control | 69 % of control | 68 % of control | 113 % of control | substantial synthetic lethality | 47 % of control | 53 % of control | 85 % of control
6 | hsa-miR-99b-5p (guide CACCCGUAGAACCGACCUUGCG; chemistry not given here; listed as Homo sapiens) | 72 % of control | 75 % of control | 87 % of control | minimal activity | 28 % of control | 49 % of control | 65 % of control | 36 % of control | 61 % of control | 93 % of control | substantial synthetic lethality | 29 % of control | 44 % of control | 67 % of control
7 | hsa-miR-100-5p (AACCCGUAGAUCCGAACUUGUG; chemistry not given here; listed as Homo sapiens) |  |  |  |  | 34 % of control | 48 % of control | 68 % of control | 48 % of control | 69 % of control | 98 % of control |  | 43 % of control | 43 % of control | 69 % of control
8 | hsa-miR-1321 (CAGGGAGGUGAAUGUGAU; chemistry not given here; listed as Homo sapiens) | 23 % of control | 23 % of control | 48 % of control |  | 4 % of control | 18 % of control | 42 % of control | 21 % of control | 45 % of control | 64 % of control | substantial synthetic lethality | 7 % of control | 24 % of control | 50 % of control
9 | hsa-miR-34c-5p (AGGCAGUGUAGUUAGCUGAUUGC; chemistry not given here; listed as Homo sapiens) |  |  |  |  | 74 % of control | 36 % of control | 72 % of control | 34 % of control | 31 % of control | 53 % of control |  | 80 % of control | 18 % of control | 68 % of control
10 | hsa-miR-449a (guide UGGCAGUGUAUUGUUAGCUGGU; chemistry not given here; listed as Homo sapiens) |  |  |  |  | 62 % of control | 22 % of control | 72 % of control | 49 % of control | 44 % of control | 71 % of control |  | 83 % of control | 35 % of control | 75 % of control
11 | hsa-miR-3924 (AUAUGUAUAUGUGACUGCUACU; chemistry not given here; listed as Homo sapiens) |  |  |  |  | 35 % of control | 40 % of control | 72 % of control | 41 % of control | 81 % of control | 85 % of control |  | 46 % of control | 57 % of control | 75 % of control
